Columns and labels:
[1] = molecular target: T1, catalytic domain of human Bub1 (amino acids 704-1085) (Homo sapiens, UniProt O43683); experiment: Bub1 kinase assay (TR-FRET); type: biochemical; conditions: 10 μM ATP, 1 μM peptide substrate, median value, read-out: Biological Assay 1: Bub1 kinase assay median IC50
T1 construct: catalytic domain of human Bub1 (amino acids 704-1085); His6 (N); made in house; host or cells: Hi5 insect cells
Source text: Bub1-inhibitory activities of compounds described in the present invention were quantified using a time-resolved fluorescence energy transfer (TR-FRET) kinase assay which measures phosphorylation of the synthetic peptide Biotin-Ahx-VLLPKKSFAEPG (C-terminus in amide form), purchased from e.g. Biosyntan (Berlin, Germany) by the (recombinant) catalytic domain of human Bub1 (amino acids 704-1085), expressed in Hi5 insect cells with an N-terminal His6-tag and purified by affinity—(Ni-NTA) and size exclusion chromatography.
In a typical assay 11 different concentrations of each compound (0.1 nM, 0.33 nM, 1.1 nM, 3.8 nM, 13 nM, 44 nM, 0.15 μM, 0.51 μM, 1.7 μM, 5.9 μM and 20 μM) were tested in duplicate within the same microtiter plate. To this end, 100-fold concentrated compound solutions (in DMSO) were previously prepared by serial dilution (1:3.4) of 2 mM stocks in a clear low volume 384-well source microtiter plate (Greiner Bio-One, Frickenhausen, Germany), from which 50 nL of compounds were transferred into a black low volume test microtiter plate from the same supplier. Subsequently, 2 μL of Bub1 (the final concentration of Bub1 was adjusted depending on the activity of the enzyme lot in order to be within the linear dynamic range of the assay: typically 200 ng/mL were used) in aqueous assay buffer [50 mM Tris/HCl pH 7.5, 10 mM magnesium chloride (MgCl2), 200 mM potassium chloride (KCl), 1.0 mM dithiothreitol (DTT), 0.1 mM sodium orthovanadate, 1% (v/v) glycerol, 0.01% (w/v) bovine serum albumine (BSA), 0.005% (v/v) Trition X-100 (Sigma), 1× Complete EDTA-free protease inhibitor mixture (Roche)] were added to the compounds in the test plate and the mixture was incubated for 15 min at 22° C. to allow pre-equilibration of the putative enzyme-inhibitor complexes before the start of the kinase reaction, which was initiated by the addition of 3 μL 1.67-fold concentrated solution (in assay buffer) of adenosine-triphosphate (ATP, 10 μM final concentration) and peptide substrate (1 μM final concentration). […] Subsequently, the amount of product was evaluated by measurement of the resonance energy transfer from the Eu-chelate-antibody complex recognizing the Phosphoserine residue to the streptavidin-XL665 bound to the biotin moiety of the peptide. To this end, the fluorescence emissions at 620 nm and 665 nm after excitation at 330-350 nm were measured in a TR-FRET plate reader, e.g. a Rubystar or Pherastar (both from BMG Labtechnologies, Offenburg, Germany) or a Viewlux (Perkin-Elmer) and the ratio of the emissions (665 nm/622 nm) was taken as indicator for the amount of phosphorylated substrate. […] IC50 values were calculated by fitting the normalized inhibition data to a 4-parameter logistic equation (Minimum, Maximum, IC50, Hill; Y=Max+(Min−Max)/(1+(X/IC50)Hill)).

[2] = system: HeLa human cervical cancer cell line; experiment: Proliferation assay (HeLa cell line, crystal violet); type: cell-based; conditions: 96 h, HeLa cells, 4 days incubation, crystal violet staining, median value, read-out: Biological Assay 2: Proliferation assay (HeLa cell line) median IC50
Protocol: Cultivated tumor cells (cells were ordered from ATCC) were plated at a density of 3000 cells/well in a 96-well multititer plate in 200 μL of growth medium supplemented 10% fetal calf serum. After 24 hours, the cells of one plate (zero-point plate) were stained with crystal violet (see below), while the medium of the other plates was replaced by fresh culture medium (200 μL), to which the test substances were added in various concentrations (0 μM, as well as in the range of 0.001-10 μM; the final concentration of the solvent dimethyl sulfoxide was 0.5%). The cells were incubated for 4 days in the presence of test substances. Cell proliferation was determined by staining the cells with crystal violet: the cells were fixed by adding 20 μL/measuring point of an 11% glutaric aldehyde solution for 15 minutes at room temperature. After three washing cycles of the fixed cells with water, the plates were dried at room temperature. The cells were stained by adding 100 μL/measuring point of a 0.1% crystal violet solution (pH 3.0). […] Absorption was determined by photometry at a wavelength of 595 nm.
The change of cell number, in percent, was calculated by normalization of the measured values to the absorption values of the zero-point plate (=0%) and the absorption of the untreated (0 μm) cells (=100%). The IC50 values were determined by means of a 4 parameter fit.

T1 sequence (O43683 704-1085): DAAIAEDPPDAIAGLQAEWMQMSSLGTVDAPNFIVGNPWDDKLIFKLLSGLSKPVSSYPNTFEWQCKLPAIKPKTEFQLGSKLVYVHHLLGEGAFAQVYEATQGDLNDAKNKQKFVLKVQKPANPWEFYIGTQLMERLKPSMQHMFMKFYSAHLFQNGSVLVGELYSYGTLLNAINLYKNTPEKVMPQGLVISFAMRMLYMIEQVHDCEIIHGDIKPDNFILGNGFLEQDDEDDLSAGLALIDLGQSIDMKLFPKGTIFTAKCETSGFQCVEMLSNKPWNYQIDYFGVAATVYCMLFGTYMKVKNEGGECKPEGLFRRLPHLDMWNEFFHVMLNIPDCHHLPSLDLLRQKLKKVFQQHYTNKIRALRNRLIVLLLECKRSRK

IC50 [1] [nM] | IC50 [2] [nM] | Structure (SMILES)
9 |  | COc1cnc(-c2nn(Cc3c(Cl)cnn3C)c(C3CC3)c2C)nc1Nc1ccncc1 [Example 2-1-1, 2-{1-[(4-chloro-1-methyl-1H-pyrazol-5-yl)methyl]-5-cyclopropyl-4-methyl-1H-pyrazol-3-yl}-5-methoxy-N-(pyridin-4-yl)pyrimidin-4-amine]
16 | > 10000 | COc1cnc(-c2nn(Cc3c(C)noc3C)c(C3CC3)c2C)nc1Nc1ccncc1C(N)=O [Example 2-2-1, 4-[(2-{5-cyclopropyl-1-[(3,5-dimethyl-1,2-oxazol-4-yl)methyl]-4-methyl-1H-pyrazol-3-yl}-5-methoxypyrimidin-4-yl)amino]nicotinamide]
2100 |  | CCOC(=O)c1cnccc1Nc1nc(-c2nn(Cc3nnc(C)o3)c(C3CC3)c2C)ncc1OC [Example 2-4-2, ethyl 4-[(2-{5-cyclopropyl-4-methyl-1-[(5-methyl-1,3,4-oxadiazol-2-yl)methyl]-1H-pyrazol-3-yl}-5-methoxypyrimidin-4-yl)amino]pyridine-3-carboxylate]
680 | > 10000 | COc1cnc(-c2nn(Cc3nnc(C)o3)c(C3CC3)c2C)nc1Nc1ccncc1C(N)=O [Example 2-5-1, 4-[(2-{5-cyclopropyl-4-methyl-1-[(5-methyl-1,3,4-oxadiazol-2-yl)methyl]-1H-pyrazol-3-yl}-5-methoxypyrimidin-4-yl)amino]pyridine-3-carboxamide]
